Assay results published in PubChem BioAssay AID1963829 (Molecular Pharmacology Branch, DTP, NCI, 2024).

Tested on: 935938-334-R-J1-PDC complex spheroid viability
Experiment: Anticancer human tumor 935938-334-R-J1-PDC patient-derived small intestine adenocarcinoma cell line growth inhibition [POLQ]
Conditions: for IC50: curve of first compound; for viability, T/C: stronger effect = lower value
Procedure, shortened: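 Complex spheroid viability model combining PDC tumour cells with endothelial (HUVEC) and MSC stromal cells. Novobiocin, ART-558 or RP6685 were tested singly and in combination with standard and investigational anticancer drugs. Each was titrated in half-log steps from near clinical Cmax, or from 10 microM where Cmax was unknown.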

[1] = second compound 0.0316 µM, first compound 0.0316 µM
[2] = second compound 0.0316 µM, first compound 0.1 µM
[3] = second compound 0.0316 µM, first compound 0.316 µM
[4] = second compound 0.0316 µM, first compound 1 µM
[5] = second compound 0.1 µM, first compound 0.0316 µM
[6] = second compound 0.1 µM, first compound 0.1 µM
[7] = second compound 0.1 µM, first compound 0.316 µM
[8] = second compound 0.1 µM, first compound 1 µM
[9] = second compound 0.316 µM, first compound 0.0316 µM
[10] = second compound 0.316 µM, first compound 0.1 µM
[11] = second compound 0.316 µM, first compound 0.316 µM
[12] = second compound 0.316 µM, first compound 1 µM
[13] = second compound 1 µM, first compound 0.0316 µM
[14] = second compound 1 µM, first compound 0.1 µM
[15] = second compound 1 µM, first compound 0.316 µM
[16] = second compound 1 µM, first compound 1 µM
[17] = second compound 3.16 µM, first compound 0.0316 µM
[18] = second compound 3.16 µM, first compound 0.1 µM
[19] = second compound 3.16 µM, first compound 0.316 µM
[20] = second compound 3.16 µM, first compound 1 µM
[21] = second compound 10 µM, first compound 0.0316 µM
[22] = second compound 10 µM, first compound 0.1 µM
[23] = second compound 10 µM, first compound 0.316 µM
[24] = second compound 10 µM, first compound 1 µM
[25] = second compound 0.0316 µM, first compound 3.16 µM
[26] = second compound 0.0316 µM, first compound 10 µM
[27] = second compound 0.1 µM, first compound 3.16 µM
[28] = second compound 0.1 µM, first compound 10 µM
[29] = second compound 0.316 µM, first compound 3.16 µM
[30] = second compound 0.316 µM, first compound 10 µM
[31] = second compound 1 µM, first compound 3.16 µM
[32] = second compound 1 µM, first compound 10 µM
[33] = second compound 3.16 µM, first compound 3.16 µM
[34] = second compound 3.16 µM, first compound 10 µM
[35] = second compound 10 µM, first compound 3.16 µM
[36] = second compound 10 µM, first compound 10 µM
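Note: spheroids exposed to drugs for seven days before viability read.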
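Throughout, for viability, T/C: 100% = DMSO vehicle control wells.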

COc1cccc(OCCCN)c1-c1cc(Nc2cnc(C#N)cn2)n[nH]1 + COC1C(OC(N)=O)C(O)C(Oc2ccc3c(O)c(NC(=O)c4ccc(O)c(CC=C(C)C)c4)c(=O)oc3c2C)OC1(C)C gave an IC50 (second compound 0.0316 µM) of 0.0496 µM, an IC50 (second compound 0.1 µM) of 0.0387 µM and an IC50 (second compound 0.316 µM) of 0.0479 µM. It also gave an IC50 (second compound 1 µM) of 0.0369 µM, an IC50 (second compound 3.16 µM) of 0.0369 µM and an IC50 (second compound 10 µM) of 0.0278 µM. For the same compound, the viability, T/C (second compound 0.0316 µM, first compound 0.00316 µM) was 90.2%, the viability, T/C (second compound 0.0316 µM, first compound 0.01 µM) was 88.9% and the viability, T/C [1] was 65.2%. It also gave a viability, T/C [2] of 25.8%, a viability, T/C [3] of 12.1% and a viability, T/C [4] of 9.12%. For the same compound, the viability, T/C (second compound 0.1 µM, first compound 0.00316 µM) was 100%, the viability, T/C (second compound 0.1 µM, first compound 0.01 µM) was 89.1% and the viability, T/C [5] was 54.5%. For the same compound, the viability, T/C [6] was 25.4%, the viability, T/C [7] was 12.5% and the viability, T/C [8] was 9.92%. The viability, T/C (second compound 0.316 µM, first compound 0.00316 µM) was 89.2%, the viability, T/C (second compound 0.316 µM, first compound 0.01 µM) was 79.7% and the viability, T/C [9] was 64.2%. It also gave a viability, T/C [10] of 26.6%, a viability, T/C [11] of 10.6% and a viability, T/C [12] of 9.51%. It also gave a viability, T/C (second compound 1 µM, first compound 0.00316 µM) of 113%, a viability, T/C (second compound 1 µM, first compound 0.01 µM) of 85.1% and a viability, T/C [13] of 57.5%. It also gave a viability, T/C [14] of 23.7%, a viability, T/C [15] of 11.1% and a viability, T/C [16] of 8.98%. For the same compound, the viability, T/C (second compound 3.16 µM, first compound 0.00316 µM) was 80.7%, the viability, T/C (second compound 3.16 µM, first compound 0.01 µM) was 89.8% and the viability, T/C [17] was 52%. It also gave a viability, T/C [18] of 22.3%, a viability, T/C [19] of 11.1% and a viability, T/C [20] of 9%. It also gave a viability, T/C (second compound 10 µM, first compound 0.00316 µM) of 84.4%, a viability, T/C (second compound 10 µM, first compound 0.01 µM) of 91.6% and a viability, T/C [21] of 45.3%. For the same compound, the viability, T/C [22] was 15.4%, the viability, T/C [23] was 11.8% and the viability, T/C [24] was 8.31%.

With CC(C)n1c(=O)n(C)c2cnc3cc(F)c(-c4ccc(OCCCN5CCCCC5)nc4)cc3c21 + Nc1ccc(C#CCN(C(=O)Cc2ncc(C(F)(F)F)cc2C(F)(F)F)c2ccc(F)cc2)nn1 the IC50 (second compound 0.0316 µM) was over 10 µM, the IC50 (second compound 0.1 µM) was over 10 µM and the IC50 (second compound 0.316 µM) was over 10 µM. It also gave an IC50 (second compound 1 µM) of over 10 µM, an IC50 (second compound 3.16 µM) of over 10 µM and an IC50 (second compound 10 µM) of over 10 µM. The viability, T/C [1] was 94.3%, the viability, T/C [2] was 84.3% and the viability, T/C [3] was 132%. For the same compound, the viability, T/C [4] was 82.9%, the viability, T/C [25] was 90.5% and the viability, T/C [26] was 79.4%. It also gave a viability, T/C [5] of 100%, a viability, T/C [6] of 102% and a viability, T/C [7] of 111%. For the same compound, the viability, T/C [8] was 84.9%, the viability, T/C [27] was 117% and the viability, T/C [28] was 90.6%. The viability, T/C [9] was 101%, the viability, T/C [10] was 99.4% and the viability, T/C [11] was 84.9%. For the same compound, the viability, T/C [12] was 101%, the viability, T/C [29] was 113% and the viability, T/C [30] was 98.4%. For the same compound, the viability, T/C [13] was 120%, the viability, T/C [14] was 77.8% and the viability, T/C [15] was 102%. The viability, T/C [16] was 113%, the viability, T/C [31] was 128% and the viability, T/C [32] was 85.7%. For the same compound, the viability, T/C [17] was 93.2%, the viability, T/C [18] was 97.7% and the viability, T/C [19] was 98.2%. It also gave a viability, T/C [20] of 92.4%, a viability, T/C [33] of 100% and a viability, T/C [34] of 94.4%. For the same compound, the viability, T/C [21] was 107%, the viability, T/C [22] was 88.8% and the viability, T/C [23] was 82.9%. For the same compound, the viability, T/C [24] was 107%, the viability, T/C [35] was 110% and the viability, T/C [36] was 109%.

Work on CC(C)n1c(=O)n(C)c2cnc3cc(F)c(-c4ccc(OCCCN5CCCCC5)nc4)cc3c21 + COC1C(OC(N)=O)C(O)C(Oc2ccc3c(O)c(NC(=O)c4ccc(O)c(CC=C(C)C)c4)c(=O)oc3c2C)OC1(C)C yielded an IC50 (second compound 0.0316 µM) of over 10 µM, an IC50 (second compound 0.1 µM) of over 10 µM and an IC50 (second compound 0.316 µM) of over 10 µM. The IC50 (second compound 1 µM) was over 10 µM, the IC50 (second compound 3.16 µM) was over 10 µM and the IC50 (second compound 10 µM) was over 10 µM. For the same compound, the viability, T/C [1] was 124%, the viability, T/C [2] was 124% and the viability, T/C [3] was 108%. The viability, T/C [4] was 95.4%, the viability, T/C [25] was 138% and the viability, T/C [26] was 133%. For the same compound, the viability, T/C [5] was 123%, the viability, T/C [6] was 109% and the viability, T/C [7] was 79%. For the same compound, the viability, T/C [8] was 135%, the viability, T/C [27] was 139% and the viability, T/C [28] was 92.8%. For the same compound, the viability, T/C [9] was 98%, the viability, T/C [10] was 105% and the viability, T/C [11] was 118%. For the same compound, the viability, T/C [12] was 119%, the viability, T/C [29] was 108% and the viability, T/C [30] was 85.2%. It also gave a viability, T/C [13] of 81.3%, a viability, T/C [14] of 117% and a viability, T/C [15] of 99.3%. The viability, T/C [16] was 113%, the viability, T/C [31] was 104% and the viability, T/C [32] was 120%. It also gave a viability, T/C [17] of 95%, a viability, T/C [18] of 115% and a viability, T/C [19] of 89.6%. It also gave a viability, T/C [20] of 117%, a viability, T/C [33] of 106% and a viability, T/C [34] of 90.3%. For the same compound, the viability, T/C [21] was 94.4%, the viability, T/C [22] was 135% and the viability, T/C [23] was 122%. The viability, T/C [24] was 160%, the viability, T/C [35] was 133% and the viability, T/C [36] was 101%.

O=c1[nH]cc(F)c(=O)[nH]1 + COC1C(OC(N)=O)C(O)C(Oc2ccc3c(O)c(NC(=O)c4ccc(O)c(CC=C(C)C)c4)c(=O)oc3c2C)OC1(C)C was tested, and the IC50 (second compound 0.0316 µM) was over 10 µM, the IC50 (second compound 0.1 µM) was over 10 µM and the IC50 (second compound 0.316 µM) was 4.82 µM. For the same compound, the IC50 (second compound 1 µM) was over 10 µM, the IC50 (second compound 3.16 µM) was 8.13 µM and the IC50 (second compound 10 µM) was over 10 µM. It also gave a viability, T/C [1] of 85.7%, a viability, T/C [2] of 96.3% and a viability, T/C [3] of 76.8%. It also gave a viability, T/C [4] of 71.9%, a viability, T/C [25] of 67.4% and a viability, T/C [26] of 57%. It also gave a viability, T/C [5] of 79.4%, a viability, T/C [6] of 103% and a viability, T/C [7] of 83.2%. The viability, T/C [8] was 63%, the viability, T/C [27] was 63.3% and the viability, T/C [28] was 55.9%. It also gave a viability, T/C [9] of 103%, a viability, T/C [10] of 76.7% and a viability, T/C [11] of 71.9%. For the same compound, the viability, T/C [12] was 72.9%, the viability, T/C [29] was 60.5% and the viability, T/C [30] was 36.5%. The viability, T/C [13] was 93%, the viability, T/C [14] was 96.4% and the viability, T/C [15] was 80.9%. For the same compound, the viability, T/C [16] was 52.8%, the viability, T/C [31] was 64.5% and the viability, T/C [32] was 51.1%. The viability, T/C [17] was 87.8%, the viability, T/C [18] was 82.5% and the viability, T/C [19] was 73.3%. It also gave a viability, T/C [20] of 64.4%, a viability, T/C [33] of 58% and a viability, T/C [34] of 48%. The viability, T/C [21] was 76.6%, the viability, T/C [22] was 82.4% and the viability, T/C [23] was 91.5%. For the same compound, the viability, T/C [24] was 67.3%, the viability, T/C [35] was 52.3% and the viability, T/C [36] was 51.3%.
